Experimental data: patent publication US8293786B2 (Alltranz Inc., priority 2007, dated 2012)
Entries after “also recorded” stand apart in the source; their conditions may differ. Structures can show the parent of a compound that is named as a salt.

Key:
human abdominal skin [1] = assay: In vitro human skin permeation and skin disposition, flow-through diffusion cells (Examples 2, 2A, 2B); format: in vitro ADME; conditions: for 24 h skin conc / 24 h cumulative amt / Flux / Lag time / Flux enhancement: 40% aqueous PEG 400 receiver fluid; for Flux enhancement: total cannabidiol versus cannabidiol
Experimental: Flow through diffusion cells were used for the permeation studies. HEPES-buffered Hanks' balanced salts containing 40% PEG 400 with gentamicin or 40% aqueous PEG 400 with gentamicin were used for the receiver compartment. Donor solution was comprised of 90:8:2 PG:H2O:IPM solution or gel formulation. […] Drug accumulation in the skin after a 24, 30 or 42 h diffusion experiment was determined as μmol/g wet tissue weight.
(§1) The skin samples used in the following experiments were obtained from abdominal reduction surgery and dermatomed to a thickness of approximately 200 μm. The skin samples used herein were frozen at −20° C. for less than six months.
(§2) One (1) L of receiver fluid was prepared by measuring 1 L of nanopure water into a graduated cylinder. 90% of the water was added to an Erlenmeyer flask. Hanks' salts (1 bottle) were added to the water along with 5.96 g of HEPES and 0.35 g of sodium bicarbonate. The pH of the solution was adjusted with 1 N sodium hydroxide solution to pH 7.4. The remaining water was added and the receiver fluid was filtered through a 0.2μ filter (Millipore, Billerica, Mass.). Fifty (50) mg of gentamicin was added to the filtered receiver fluid and 400 mL of the receiver fluid was removed and replaced with 400 mL of PEG 400.
The receiver fluid was prepared by measuring 600 mL of nanopure H2O into a graduated cylinder. The H2O was filtered through a 0.2μ filter (Millipore, Billerica, Mass.). Fifty (50) mg of gentamicin was added to the filtered H2O and 400 mL of PEG 400 was added.
The prodrugs were made up in a solution of 45:4:1 PG:H2O:IPM. For this solution, the appropriate amount of drug was weighed into a glass silanized culture tube and IPM was added, the 50 μL of PG to coat the drug, then an additional 247 μL PG was added and the donor solution was vortexed again. Finally 26 μL of water was added. The gel formulation resulted from the mixing of absolute ethanol, nanopure water, IPM, Carbopol® 980, 0.1 N sodium hydroxide solution and the respective drug.
The gel formulation was comprised of absolute ethanol, nanopure water, IPM, Carbopol® 980, 0.1 sodium hydroxide solution and respective drug. The anhydrous gel was comprised of absolute ethanol, PEG monoethyl ether 550, Klucel® hydroxypropylcellulose, and respective drug.
Dermatomed skin harvested from abdominoplasty, stored at −20° C., was used for the experiments. A PermeGear flow-through (In-Line, Hellertown, Pa.) diffusion cell system was used for the skin permeation studies.
(§3) Diffusion cells were kept at 32° C. with a circulating water bath. Human epidermal skin was arranged in the diffusion cell with stratum corneum (upper layer of skin) facing the donor compartment. The permeation area of the skin was 0.95 cm^2. The data was collected from a human skin donor with three diffusion cells per treatment.
(§4) The receiver solution was HEPES-buffered Hanks' balanced salts with gentamicin containing 40% PEG 400 at a pH of 7.4 or 40% aqueous PEG 400 and flow rate was adjusted to 0.8 mL/h. Each cell was charged with 0.10 mL of the respective drug formulation (donor solution) or 50 μL of gel formulation which was rubbed into the skin for 15 sec with a Teflon coated rod. The formulation was applied to ensure complete coverage. The formulation was applied to ensure complete coverage. Diffusion cells were covered with a stopper or cap for the duration of the study.
Samples were collected into scintillation vials in 3 h increments for either 24, 30, or 42 h. All the samples were stored at 4° C. until extracted. An aliquot (0.5 mL) of the diffusion sample was placed into a silanized HPLC vial and 0.5 mL of acetonitrile was added to the sample, capped and vortexed.
At the end of the experiment, the skin tissue was removed from the diffusion cell, rinsed with nanopure water, and blotted dry with a paper towel. The skin was tape stripped twice using book tape (Scotch™, 3M, St. Paul, Minn.) to remove drug formulation adhering to the tissue surface.

human abdominal skin [2] = assay: In vitro human skin permeation and skin disposition, flow-through diffusion cells (Example 1); format: in vitro ADME; conditions: for found in the skin disposition (tissue) samples: Example 1; for permeation through the skin: both the PG donor solution and gel formulation; for 36 h skin conc.: Table 14, in propylene glycol
Experimental: Flow through diffusion cells were used for the permeation studies. HEPES-buffered Hanks' balanced salts containing 40% (polyethylene glycol) PEG 400 with gentamicin was used for the receiver compartment. Donor solution was comprised of either 100% propylene glycol (PG) solution or a rubbed in gel formulation. […] Drug accumulation in the skin after a 24 or 36 h diffusion experiment was determined as μmol/g wet tissue weight.
as §1
as §2, with “1” for “One (1)”, “50” for “Fifty (50)”
Two different formulations were used for charging the donor compartment. Drugs were made up in either 100% PG or a gel formulation. For the PG solution, approximately 50-120 mg of the appropriate drug was weighed into a glass silanized culture tube. The gel formulation resulted from the mixing of absolute ethanol, nanopure water, IPM, Carbopol® 980, 0.1 N aqueous sodium hydroxide solution and the respective drug.
Dermatomed skin harvested from abdominoplasty, stored at −20° C., was used for the experiments. A PermeGear flow-through (In-Line, Riegelsville, Pa.) diffusion cell system was used for the skin permeation studies.
as §3, with “Permeation” for “The permeation”, “Data” for “The data”, “three to four” for “three”
as §4, with “Receiver” for “The receiver”, “7.4” for “7.4 or 40% aqueous PEG 400”, “0.050” for “0.10”, “with 0.035 mL” for “50 μL”, “coverage.” for “coverage. The formulation was applied to ensure complete coverage.”, “a” for “a stopper or”
Samples were collected into scintillation vials in 3 h increments for either 24 h or 36 h. All the samples were stored at 4° C. until extracted. An aliquot (0.5 mL) of the diffusion sample was placed into a silanized HPLC vial and 0.5 mL of acetonitrile was added to the sample, capped and vortexed.
At the end of the experiment, the skin tissue was removed from the diffusion cell, rinsed with nanopure water, and blotted dry with a paper towel. The skin was tape stripped twice using book tape (Scotch™, 3M, St. Paul, Minn.) to remove drug formulation adhering to the tissue surface. The area of skin in contact with the drug was cut out, chopped up and placed in a pre-weighed scintillation vial. Ten mL of acetonitrile was added to the vial and drug was extracted from the skin by shaking at room temperature overnight. The following day a 0.1 mL aliquot was removed and diluted with an additional 0.9 mL of acetonitrile. The diluted sample was added to the silanized HPLC vial for analysis.
At the end of the experiment, a 0.01 mL aliquot of the PG donor solution was removed and added to a scintillation vial containing 10 mL of acetonitrile. The vials were vortexed and then sonicated for 15 min. An aliquot of 1 mL was removed and transferred into a silanized HPLC vial for analysis.

[3] = Table 19, gel formulation, CBD from applied prodrug
[4] = Table 19, gel formulation, as applied compound (CBD or intact prodrug)
[5] = Table 19, gel formulation, prodrug applied, as total cannabidiol equivalents
[6] = Table 21, gel formulation, CBD from applied prodrug
[7] = Table 21, gel formulation, as applied compound (CBD or intact prodrug)
[8] = Table 21, gel formulation, prodrug applied, as total cannabidiol equivalents
[9] = Table 23, gel formulation, CBD from applied prodrug
[10] = in an anhydrous gel formulation

Row | SMILES | 24 h skin conc (human abdominal skin [1]; [3]) [µmol/g] | 24 h cumulative amt (human abdominal skin [1]; [4]) [nmol] | 24 h skin conc (human abdominal skin [1]; [4]) [µmol/g] | Flux (human abdominal skin [1]; [4]) [nmol/cm^2/h] | Lag time (human abdominal skin [1]; [4]) [h] | 24 h cumulative amt (human abdominal skin [1]; [5]) [nmol] | 24 h skin conc (human abdominal skin [1]; [5]) [µmol/g] | Flux (human abdominal skin [1]; [5]) [nmol/cm^2/h] | Lag time (human abdominal skin [1]; [5]) [h] | Flux enhancement (human abdominal skin [1]; Table 19, gel formulation) | detected in the skin as (human abdominal skin [1]; in gel formulation) | flux compared to cannabidiol (human abdominal skin [1]; in gel formulation) | permeated through the skin as (human abdominal skin [1]; in gel formulation) | total skin concentrations compared to cannabidiol (human abdominal skin [1]; in gel formulation) | found in the skin disposition (tissue) samples (human abdominal skin [2]) | permeation through the skin (human abdominal skin [2]) | 24 h skin conc (human abdominal skin [1]; [6]) [µmol/g] | 24 h skin conc (human abdominal skin [1]; [7]) [µmol/g] | 24 h skin conc (human abdominal skin [1]; [8]) [µmol/g] | also measured
1 | C=C(C)C1CCC(C)=CC1c1c(O)cc(CCCCC)cc1OC(=O)CN(C)C (centres unmarked) [ALL00148, CBD N,N-dimethylglycinate] | 2.4 ± 2.1 | 8.0 ± 1.8 | 20.8 ± 21.1 | 0.5 ± 0.1 | 7.6 ± 2.1 | 8.0 ± 1.8 | 23.2 ± 23.2 | 0.5 ± 0.1 | 7.6 ± 2.1 | 0.63 | mostly intact prodrug and small amounts of cannabidiol | did not increase the flux | intact prodrug only | higher | – | – | – | – | – | lag time compared to cannabidiol (human abdominal skin [1]; in gel formulation): similar
2 | C=C(C)C1CCC(C)=CC1c1c(OC(=O)NCC)cc(CCCCC)cc1OC(=O)NCC (centres unmarked) [ALL00104] | – | – | – | – | – | – | – | – | – | – | – | – | – | – | Some intact prodrug was found in the skin samples but very little cannabidiol was detected | did not permeate (or were below LOD) | – | – | – | –
3 | C=C(C)C1CCC(C)=CC1c1c(OC(=O)CCOCC)cc(CCCCC)cc1OC(=O)CCOCC (centres unmarked) [ALL00103] | – | – | – | – | – | – | – | – | – | – | – | – | – | – | Some intact prodrug was found in the skin samples but very little cannabidiol was detected | did not permeate (or were below LOD) | – | – | – | 36 h skin conc. (human abdominal skin [2]; as applied compound (CBD or intact prodrug)): 9.7 ± 1.0 µmol/g; 36 h skin conc. (human abdominal skin [2]; prodrug applied, as total CBD equivalents): 9.7 ± 1.0 µmol/g
4 | C=C(C)[C@@H]1CCC(C)=C[C@H]1c1c(O)cc(CCCCC)cc1OC=O [ALL00146, CBD Formate] | 0.8 ± 0.1 | 4.0 ± 0.0 | 3.3 ± 0.5 | 0.3 ± 0.0 | 7.0 ± 0.0 | 12.7 ± 2.3 | 4.1 ± 0.4 | 0.9 ± 0.1 | 8.9 ± 1.1 | 1.09 | intact prodrug and cannabidiol; also recorded: small amount of cannabidiol with the remaining being prodrug | did slightly increase the flux; also recorded: didn't increase the flux | – | – | – | – | 3.7 ± 2.1 | 16.0 ± 9.8 | 19.7 ± 11.9 | 24 h cumulative amt (human abdominal skin [1]; [3]): 10.7 ± 0.5 nmol; Flux (human abdominal skin [1]; [3]): 0.8 ± 0.1 nmol/cm^2/h; Lag time (human abdominal skin [1]; [3]): 9.1 ± 0.9 h; 24 h cumulative amt (human abdominal skin [1]; [6]): 2.7 ± 1.4 nmol; Flux (human abdominal skin [1]; [6]): 0.2 ± 0.1 nmol/cm^2/h; Lag time (human abdominal skin [1]; [6]): 9.8 ± 3.7 h; 24 h cumulative amt (human abdominal skin [1]; [8]): 2.7 ± 1.4 nmol; Flux (human abdominal skin [1]; [8]): 0.2 ± 0.1 nmol/cm^2/h; Lag time (human abdominal skin [1]; [8]): 9.8 ± 3.7 h; Flux enhancement (human abdominal skin [1]; Table 21, gel formulation): 0.53; 24 h cumulative amt (human abdominal skin [1]; [9]): 5.9 nmol; Flux (human abdominal skin [1]; [9]): 0.26 nmol/cm^2/h; Lag time (human abdominal skin [1]; [9]): 0.4 h
5 | C=C(C)C1CCC(C)=CC1c1c(O)cc(CCCCC)cc1OC(=O)CCN(C)C (centres unmarked) [ALL00150, CBD 3-(dimethylamino)propionate] | – | – | – | – | – | – | – | – | – | – | primarily ALL00150 with a small amount of cannabidiol | – | did not permeate through the skin | higher | – | – | 7.9 ± 2.3 | 47.7 ± 3.0 | 55.6 ± 5.3 | 24 h skin conc (human abdominal skin [1]; Table 22, anhydrous gel formulation, CBD from applied prodrug): 1.1 ± 0.8 µmol/g; 24 h skin conc (human abdominal skin [1]; Table 22, anhydrous gel formulation, as applied compound (CBD or intact prodrug)): 5.6 ± 3.1 µmol/g; 24 h skin conc (human abdominal skin [1]; Table 22, anhydrous gel formulation, prodrug applied, as total cannabidiol equivalents): 6.7 ± 3.8 µmol/g; concentrations in the skin, anhydrous gel formulation compared to the ethanol based gel formulation (human abdominal skin [1]; anhydrous gel versus ethanol based gel): much lower; detected in the skin as (human abdominal skin [1]; [10]): ALL00150 and cannabidiol; permeation through the skin (human abdominal skin [1]; [10]): did not permeate through the skin; total skin concentrations compared to cannabidiol (human abdominal skin [1]; [10]): higher
